{
  "source": "patent US9808434B2",
  "about": "“Compound for treating cancer and diabetes” (CITY OF HOPE, priority 2011, dated 2017)",
  "key": {"AMPK": {"system": "AMPK", "test": "AMPK activation in 3T3-L1 cells, Western blot", "type": "cell-based, mouse", "details": "1 hour", "description": "Activation of AMPK was associated with the phosphorylation of the α-subunit on Thr-172 of as assessed using phospho-specific antibodies (FIGS. 10A-B). AMPK activation also leads to the increased phosphorylation of the target protein acetyl-CoA carboxylase (ACC) (FIG. 10B).\nCells of each cell lines (Hela, HL-60, and 3T3-L1) were treated for 1 hour with a test compound (COH-SR4, COH-SR9, COH-SR16, or COH-SR18) at a concentration of 1 μM, 3 μM, or 5 μM, or AICAR (5-aminoimidazole-4-carboxamideriboside, an AMPK agonist used as positive control) at a concentration of 500 μM, or none of the above (the untreated cells as negative control). Total cell lysates from the untreated cells and the cells treated with a test compound or AICAR were analyzed by Western blot assay using specific antibodies against phospho-AMPK, phospho-ACC, total AMPK and total ACC."}, "[1]": {"system": "CD133 sorted PBT-017 glioma cells", "test": "Killing of CD133 sorted PBT-017 glioma cells", "type": "cell-based", "details": "0-100 μM, 4 days", "description": "CD133 positive glioma stem cells were sorted by FACS. Unsorted cells, CD133 positive cells, and CD133 negative PBT-017 glioma cells were treated with COH-SR4 at various concentrations (0˜100 μM) for 4 days, respectively. Data were represented as a ratio to untreated control, and plotted as mean±SEM (n=12) obtained from 2˜3 experiments (FIG. 39A)."}, "PBT-017 glioma cells": {"system": "PBT-017 glioma cells", "test": "Combination index with chemotherapy drugs, PBT-017", "type": "cell-based", "description": "Effects of combination of COH-SR4 and a chemotherapy drug such as TMZ, SN38, CPT-11, and 5-FU were studied by combination index (CI) theorem and plot using the method described in Chou (“Experimental Design, and Computerized Simulation of Synergism and Antagonism in Drug Combination Studies,” Pharmacological Reviews, Vol. 58, No. 3), which is incorporated herein by reference in its entirety.\nCOH-SR4 and a chemotherapy drug (TMZ, SN38, CPT-11, or 5-FU) were dissolved in DMSO individually, and then diluted to the appropriate concentration in the same cell culture media before applying to cells of each cell line. After 4 days, the amount of ATP present in the cell lysates were assessed using Progema's CellGlo kit. The CI of each combination of COH-SR4 and the chemotherapy drug was calculated and plotted against the concentration of COH-SR4 for each concentration of the chemotherapy drug used."}, "melanoma cells": {"system": "melanoma cells", "test": "MTT assay, melanoma cell lines of various mutational status", "type": "cell-based", "details": "48 h, regardless of mutational status; read-out: IC50 values across melanoma cell lines", "description": "(§1) Cell density measurements were performed using a hemocytometer to count reproductive cells resistant to staining with trypan blue. Approximately 20,000 cells were plated into each well of 96-well flat-bottomed micro-titer plates. After 12 h or 24 h incubation at 37° C., medium containing either COH-SR4 (ranging 0-200 μM) or elesclomol (ranging 0-20 μM) were added to the cells. After 24 h, 48 h or 96 h incubation, 20 μL of 5 mg/mL MTT were introduced to each well and incubated for 2 h. The plates were centrifuged and medium was decanted. Cells were subsequently dissolved in 100 μl DMSO with gentle shaking for 2 h at room temperature, followed by measurement of OD570 (91)."}, "[2]": {"system": "HAVSMC, NHDFs, melanocytes", "test": "MTT assay, normal cells", "type": "cell-based, human", "details": "24 h and 48 h", "description": "as §1"}, "SK-Mel-5": {"system": "SK-Mel-5", "test": "Colony formation assay, SK-Mel-5", "type": "cell-based, human", "details": "5 μM", "description": "(§2) Cell survival was evaluated using a standard colony-forming assay. In total, 1×10^5 cells/mL were incubated with COH-SR4 (1.5 μM or 5 μM) or elesclomol (5 μM) for 24 h, and aliquots of 50 or 100 μL were added to 60 mm size petri dishes, containing 4 mL culture medium. After 7 or 10 days, adherent colonies were fixed, stained with 0.5% methylene blue for 30 min and colonies were counted using the Innotech Alpha Imager HP (91)."}, "H1417": {"system": "H1417", "test": "Colony formation assay, H1417", "type": "cell-based, human", "details": "1.5 μM", "description": "as §2\nThe effect of COH-SR4 was first examined in a NCI panel of cancer cell lines, the results of which indicated good activity of COH-SR4 towards lung cancer (FIG. 78A). […] Values are presented as mean±SD from two separate determinations with eight replicates each (n=16) (FIG. 78B). The COH-SR4 treatment exerted a significant inhibitory effect on the survival of lung cancer cells [IC50: H1417 cells-1.2±0.2 μM, H1618 cells-1.5±0.2 μM, H358 cells-2.1±0.2 μM and H520 cells-2.4±0.3 μM]. […] Following initial screening for the anticancer activity of COH-SR4, the effect of COH-SR4 on clonogenic potential was studied. Standard colony-forming assay was performed and the colonies were counted using Innotech Alpha Imager HP. […] The effect of COH-SR4 on induction of apoptosis was further investigated. […] TUNEL assay was performed using Promega fluorescence detection kit and examined using Zeiss LSM 510 META laser-scanning fluorescence microscope with filters 520 and 620 nm. […]"}},
  "note": "pIC50: −log10 of the molar value.",
  "data": [
    {"smiles": "O=C(Nc1cc(Cl)cc(Cl)c1)Nc1cc(Cl)cc(Cl)c1", "note": "[COH-SR4, 1,3-bis(3,5-dichlorophenyl) urea]", "values": [
      {"measurement": "AMPK activation", "setting": "AMPK", "value": "activated AMPK"},
      {"measurement": "killing of CD133 positive, negative and unsorted cells", "setting": "[1]", "value": "effective in killing the CD133 positive glioma stem cells"},
      {"measurement": "combination effect (CI) with 5-FU", "setting": "PBT-017 glioma cells; COH-SR4 <0.05 μM + 5-FU >250 μM", "value": "Additive effects"},
      {"measurement": "combination effect (CI) with CPT-11", "setting": "PBT-017 glioma cells; COH-SR4 <0.5 μM + CPT-11 <0.0625 μM", "value": "Synergism"},
      {"measurement": "combination effect (CI) with SN-38", "setting": "PBT-017 glioma cells; COH-SR4 <0.5 μM + SN-38 <0.0004 μM", "value": "Synergism"},
      {"measurement": "combination effect (CI) with TMZ", "setting": "PBT-017 glioma cells; COH-SR4 <0.5 μM + TMZ 25 μM", "value": "Synergism"},
      {"measurement": "combination effect (CI) with TMZ", "setting": "PBT-017 glioma cells; COH-SR4 <1.0 μM + TMZ >100 μM", "value": "Additive effects"},
      {"measurement": "combination effect (CI) with SN-38", "setting": "PBT-017 glioma cells; COH-SR4 >0.5 μM + SN-38 <0.001 μM", "value": "Additive effects"},
      {"measurement": "combination effect (CI) with CPT-11", "setting": "PBT-017 glioma cells; COH-SR4 >1.0 μM + CPT-11 <0.5 μM", "value": "Additive effects"},
      {"measurement": "pIC50", "setting": "melanoma cells", "value": "5.32 to 5.92"},
      {"measurement": "cytotoxicity in normal cells", "setting": "[2]", "value": "did not cause any significant cytotoxicity"},
      {"measurement": "colony formation", "setting": "SK-Mel-5", "value": "22±8", "unit": "%"},
      {"measurement": "colony formation", "setting": "H1417", "value": "39±8", "unit": "%"}
    ]}
  ]
}
